What is called IC50 is the concentration needed to halve the response being measured. A lower IC50 goes with higher potency.

For the experiment, the target named is T1, human Npt2a (Homo sapiens, UniProt Q06495).
T1 construct: expressed in transfected cells
T1 sequence (Q06495 1-639): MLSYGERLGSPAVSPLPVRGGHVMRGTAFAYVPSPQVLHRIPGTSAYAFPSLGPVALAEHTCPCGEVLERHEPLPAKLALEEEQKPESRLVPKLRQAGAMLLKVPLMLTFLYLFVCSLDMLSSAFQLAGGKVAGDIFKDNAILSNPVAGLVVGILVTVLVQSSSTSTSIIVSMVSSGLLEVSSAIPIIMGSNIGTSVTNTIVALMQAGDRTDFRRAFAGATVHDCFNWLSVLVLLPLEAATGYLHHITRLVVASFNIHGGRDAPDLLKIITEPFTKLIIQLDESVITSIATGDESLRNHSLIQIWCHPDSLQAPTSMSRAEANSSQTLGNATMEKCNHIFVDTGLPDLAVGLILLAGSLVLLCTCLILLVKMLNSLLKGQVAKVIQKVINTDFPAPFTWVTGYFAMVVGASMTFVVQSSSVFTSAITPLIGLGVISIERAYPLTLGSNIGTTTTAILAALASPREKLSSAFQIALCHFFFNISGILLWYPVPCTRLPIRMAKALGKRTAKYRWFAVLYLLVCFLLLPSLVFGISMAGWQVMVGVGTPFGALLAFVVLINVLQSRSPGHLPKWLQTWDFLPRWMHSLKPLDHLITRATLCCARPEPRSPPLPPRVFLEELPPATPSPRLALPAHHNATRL
The experiment is described as follows: Npt2a activity cell based assay, membrane potential dye, CHO T-REx hNpt2a cells. The conditions noted are these: doxycycline-induced, depolarization by sodium phosphate influx, average or median values if tested more than once. In short, it runs like this:
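Doxycycline-induced (0.5 μg/mL, 24 h) CHO T-REx cells were loaded with membrane potential dye in sodium-free NHE buffer (pH 7.4) and exposed to compound (50 μM–1 nM, 5 min, room temperature).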
The molecule `COc1c(-c2ccc(C#N)cc2)nn(C)c1Nc1cc(-n2nc(C)c(CC(C)(C)O)c2C)ncn1` [Example 428, 4-[5-({6-[4-(2-hydroxy-2-methylpropyl)-3,5-dimethyl-1H-pyrazol-1-yl]pyrimidin-4-yl}amino)-4-methoxy-1-methyl-1H-pyrazol-3-yl]benzonitrile] gave an IC50 of 550 nM.

Regarding `Cc1nn(-c2cc(Nc3c(C)c(-c4ccc(F)cc4)nn3CC3CC3)ncn2)c(C)c1O` [Example 429, 1-(6-{[1-(cyclopropylmethyl)-3-(4-fluorophenyl)-4-methyl-1H-pyrazol-5-yl]amino}pyrimidin-4-yl)-3,5-dimethyl-1H-pyrazol-4-ol], the IC50 was 17 nM.

`CSc1cc(-c2nn(CC3CC3)c(Nc3cc(-n4nc(C)cc4C)ncn3)c2C)ccc1F` [Example 430, N-{1-(cyclopropylmethyl)-3-[4-fluoro-3-(methylsulfanyl)phenyl]-4-methyl-1H-pyrazol-5-yl}-6-(3,5-dimethyl-1H-pyrazol-1-yl)pyrimidin-4-amine] displayed an IC50 of 45 nM.

The molecule `Cc1c(-c2ccc(F)cc2)nn(CC2CC2)c1Nc1cc(-n2ncc3c2CN(C(=O)OC(C)(C)C)C3)ncn1` [Example 431, tert-butyl 1-(6-{[1-(cyclopropylmethyl)-3-(4-fluorophenyl)-4-methyl-1H-pyrazol-5-yl]amino}pyrimidin-4-yl)-4,6-dihydropyrrolo[3,4-c]pyrazole-5(1H)-carboxylate] gave a half-inhibitory concentration (IC50) of 69 nM. Compared with the last molecule, the IC50 is about 1.5-fold higher.

The molecule `Cc1cc(C(F)F)n(-c2cc(Nc3nn(C)c(-c4ccc(C(F)F)cc4)c3C)ncn2)n1` [Example 432, 6-[5-(difluoromethyl)-3-methyl-1H-pyrazol-1-yl]-N-{5-[4-(difluoromethyl)phenyl]-1,4-dimethyl-1H-pyrazol-3-yl}pyrimidin-4-amine] displayed an IC50 of 320 nM. Compared with the last molecule, the IC50 is about 4.6-fold higher.

On to `Cc1c(-c2ccc(F)cc2)nn(CC2CC2)c1Nc1cc(-n2cc3c(n2)CN(C(=O)OC(C)(C)C)C3)ncn1` [Example 433, tert-butyl 2-(6-{[1-(cyclopropylmethyl)-3-(4-fluorophenyl)-4-methyl-1H-pyrazol-5-yl]amino}pyrimidin-4-yl)-2,6-dihydropyrrolo[3,4-c]pyrazole-5(4H)-carboxylate], for which inhibition was half-maximal at 1500 nM (IC50).

With `COc1c(C)nn(-c2cc(Nc3nn(C)c(-c4ccc(F)cc4)c3C)ncn2)c1C` [Example 434, N-[5-(4-fluorophenyl)-1,4-dimethyl-1H-pyrazol-3-yl]-6-(4-methoxy-3,5-dimethyl-1H-pyrazol-1-yl)pyrimidin-4-amine], 7 nM corresponded to half-maximal inhibition (IC50).

Molecule `COc1c(C)nn(-c2cc(Nc3nn(C)c(-c4ccc(C#N)cc4)c3C)ncn2)c1C` [Example 435, 4-(3-{[6-(4-methoxy-3,5-dimethyl-1H-pyrazol-1-yl)pyrimidin-4-yl]amino}-1,4-dimethyl-1H-pyrazol-5-yl)benzonitrile] gave an IC50 of 5 nM.

For the molecule `COc1c(C)nn(-c2cc(Nc3c(C)c(-c4ccc(C#N)cc4)nn3C)ncn2)c1C` [Example 436, 4-(5-{[6-(4-methoxy-3,5-dimethyl-1H-pyrazol-1-yl)pyrimidin-4-yl]amino}-1,4-dimethyl-1H-pyrazol-3-yl)benzonitrile], half-maximal inhibition (IC50) was put at 10 nM.

Consider `COc1c(C)nn(-c2cc(Nc3c(C)c(-c4ccc(F)cc4)nn3C)ncn2)c1C` [Example 437, N-[3-(4-fluorophenyl)-1,4-dimethyl-1H-pyrazol-5-yl]-6-(4-methoxy-3,5-dimethyl-1H-pyrazol-1-yl)pyrimidin-4-amine], for which the IC50 turned out to be 21 nM.

Turning to `CCOC(=O)c1c(C)nn(-c2cc(Nc3c(C)c(-c4ccc(F)cn4)nn3CC3CC3)ncn2)c1C` [Example 438, ethyl 1-(6-{[1-(cyclopropylmethyl)-3-(5-fluoropyridin-2-yl)-4-methyl-1H-pyrazol-5-yl]amino}pyrimidin-4-yl)-3,5-dimethyl-1H-pyrazole-4-carboxylate], the IC50 stood at 16 nM.

On to `Cc1nn(-c2cc(Nc3c(C)c(-c4ccc(F)cn4)nn3CC3CC3)ncn2)c(C)c1Cl` [Example 439, 6-(4-chloro-3,5-dimethyl-1H-pyrazol-1-yl)-N-[1-(cyclopropylmethyl)-3-(5-fluoropyridin-2-yl)-4-methyl-1H-pyrazol-5-yl]pyrimidin-4-amine], for which the IC50 came out at 39 nM.

The molecule `CCc1c(Nc2cc(-n3nc(C)c(CC(=O)OC(C)C)c3C)ncn2)nn(C)c1-c1ccc(F)cc1` [Example 440, propan-2-yl [1-(6-{[4-ethyl-5-(4-fluorophenyl)-1-methyl-1H-pyrazol-3-yl]amino}pyrimidin-4-yl)-3,5-dimethyl-1H-pyrazol-4-yl]acetate] gave an IC50 of 97 nM.

The molecule `Cc1cc(C)n(-c2cc(Nc3c(Cl)c(-c4ccc(C#N)cc4)nn3CC3CC3)ncn2)n1` [Example 441, 4-[4-chloro-1-(cyclopropylmethyl)-5-{[6-(3,5-dimethyl-1H-pyrazol-1-yl)pyrimidin-4-yl]amino}-1H-pyrazol-3-yl]benzonitrile] yielded an IC50 of 21 nM.

With `CCOC(=O)c1c(C)nn(-c2cc(Nc3c(Cl)c(-c4ccc(C#N)cc4)nn3CC3CC3)ncn2)c1C` [Example 442, ethyl 1-(6-{[4-chloro-3-(4-cyanophenyl)-1-(cyclopropylmethyl)-1H-pyrazol-5-yl]amino}pyrimidin-4-yl)-3,5-dimethyl-1H-pyrazole-4-carboxylate], the IC50 turned out to be 8 nM. This IC50 lies about 2.6-fold lower than the previous one.

Take `COc1c(Nc2cc(-n3nc(C)cc3C)ncn2)nn(C)c1-c1ccc(C#N)cc1` [Example 443, 4-(3-{[6-(3,5-dimethyl-1H-pyrazol-1-yl)pyrimidin-4-yl]amino}-4-methoxy-1-methyl-1H-pyrazol-5-yl)benzonitrile]: the half-maximal inhibitory concentration (IC50) was 11 nM.

In turn, `COc1c(-c2ccc(C#N)cc2)nn(C)c1Nc1cc(-n2nc(C)cc2C)ncn1` [Example 444, 4-(5-{[6-(3,5-dimethyl-1H-pyrazol-1-yl)pyrimidin-4-yl]amino}-4-methoxy-1-methyl-1H-pyrazol-3-yl)benzonitrile] returned an IC50 of 120 nM.

Consider `Cc1cc(C(F)F)n(-c2cc(Nc3c(Cl)c(-c4ccc(C#N)cc4)nn3CC3CC3)ncn2)n1` [Example 445, 4-[4-chloro-1-(cyclopropylmethyl)-5-({6-[5-(difluoromethyl)-3-methyl-1H-pyrazol-1-yl]pyrimidin-4-yl}amino)-1H-pyrazol-3-yl]benzonitrile], for which half-maximal inhibition (IC50) required 12 nM.

Molecule `CCOC(=O)c1c(C)nn(-c2cc(Nc3c(OC)c(-c4ccc(C#N)cc4)nn3C)ncn2)c1C` [Example 446, ethyl 1-(6-{[3-(4-cyanophenyl)-4-methoxy-1-methyl-1H-pyrazol-5-yl]amino}pyrimidin-4-yl)-3,5-dimethyl-1H-pyrazole-4-carboxylate] gave an IC50 of 12 nM.

The molecule `CCOC(=O)c1cc(C)nn1-c1cc(Nc2nn(C)c(-c3ccc(F)cc3)c2Cl)ncn1` [Example 447, ethyl 1-(6-{[4-chloro-5-(4-fluorophenyl)-1-methyl-1H-pyrazol-3-yl]amino}pyrimidin-4-yl)-3-methyl-1H-pyrazole-5-carboxylate] showed an IC50 of 560 nM.

For `CCOC(=O)c1c(Cl)c(C)nn1-c1cc(Nc2c(Cl)c(-c3ccc(F)cc3)nn2C)ncn1` [Example 448, ethyl 4-chloro-1-(6-{[4-chloro-3-(4-fluorophenyl)-1-methyl-1H-pyrazol-5-yl]amino}pyrimidin-4-yl)-3-methyl-1H-pyrazole-5-carboxylate], 440 nM corresponded to half-maximal inhibition (IC50).

As for `CCOC(=O)c1c(C)nn(-c2cc(Nc3c(Cl)c(-c4ccc(F)cc4)nn3C)ncn2)c1C` [Example 449, ethyl 1-(6-{[4-chloro-3-(4-fluorophenyl)-1-methyl-1H-pyrazol-5-yl]amino}pyrimidin-4-yl)-3,5-dimethyl-1H-pyrazole-4-carboxylate], the half-maximal inhibitory concentration (IC50) worked out at 8 nM.

In the case of `COc1c(-c2ccc(F)cc2)nn(CC2CC2)c1Nc1cc(-n2nc(C)c(-c3nnc(C)o3)c2C)ncn1` [Example 450, N-[1-(cyclopropylmethyl)-3-(4-fluorophenyl)-4-methoxy-1H-pyrazol-5-yl]-6-[3,5-dimethyl-4-(5-methyl-1,3,4-oxadiazol-2-yl)-1H-pyrazol-1-yl]pyrimidin-4-amine], half-maximal inhibition (IC50) was put at 660 nM. Compared with the last molecule, the IC50 is about 82-fold higher.

In the case of `CC(=O)c1c(C)nn(-c2cc(Nc3c(C)nn(-c4ccc(C#N)cc4)c3C)ncn2)c1C` [Example 451, 4-(4-{[6-(4-acetyl-3,5-dimethyl-1H-pyrazol-1-yl)pyrimidin-4-yl]amino}-3,5-dimethyl-1H-pyrazol-1-yl)benzonitrile], the IC50 turned out to be 78 nM.

`Cc1nn(-c2cc(Nc3c(C)c(-c4ccc(F)cc4)nn3CC3CC3)ncn2)c(C)c1CN1CC(F)C1` [Example 452, N-[1-(cyclopropylmethyl)-3-(4-fluorophenyl)-4-methyl-1H-pyrazol-5-yl]-6-{4-[(3-fluoroazetidin-1-yl)methyl]-3,5-dimethyl-1H-pyrazol-1-yl}pyrimidin-4-amine] returned an IC50 of 16 nM.

In turn, `CCOC(=O)c1c(C)nn(-c2cc(Nc3c(C)nn(-c4ccc(F)cc4)c3C)ncn2)c1C` [Example 453, ethyl 1-(6-{[1-(4-fluorophenyl)-3,5-dimethyl-1H-pyrazol-4-yl]amino}pyrimidin-4-yl)-3,5-dimethyl-1H-pyrazole-4-carboxylate] gave an IC50 of 18 nM. The IC50 values of the last two molecules are within 1.5-fold of each other.

For the origin of these results see patent US11208400B2, “Substituted 6-(1H-pyrazol-1-yl)pyrimidin-4-amine derivatives and uses thereof” (Bayer Aktiengesellschaft, priority 2016, dated 2021).
